The source of these data is patent EP4813403A1, “USE OF GLP-1R/GIPR DOUBLE-TARGET AGONIST IN PREPARING ANIMAL DRUG” (Hangzhou Zhongmeihuadong Pharmaceutical Co., Ltd., priority 2023, dated 2025).

Some results are limits rather than exact numbers.

As usually defined, the MRT is the average time that molecules of a dose stay in the body.

Series [1] is described as follows: Pharmacokinetics in C57 mice. Conditions: C57, mouse, in vivo. As to the method: After subcutaneous or intravenous administration to C57 mice, plasma was collected and the drug concentration in plasma was determined to illustrate the in vivo pharmacokinetic properties of the compound according to the present invention. […] 20.0 µL of thawed plasma sample was taken. 20 µL of 50% aqueous methanol solution (containing 100 ng mL^-1 Tolbutamide) and 60 µL of acetonitrile were added sequentially to precipitate protein. The mixture was vortexed for 5 minutes, and centrifuged at 4815 rpm for 8 minutes. 50.0 µL of the supernatant was taken, into which 50.0 µL of 0.5% aqueous formic acid solution was added. The mixture was vortexed for 5 minutes. 50 µL of the mixture solution was sampled and injected into the LC-MS/MS to determine the drug concentration in plasma. Based on the drug concentration in plasma of the compounds in C57 mice, the pharmacokinetic parameters were calculated by applying the software Winnolin 8.3 in a non-compartmental model, and the results were shown in Table 7 and Table 8 below. Table 7 Average Pharmacokinetic Parameters after Single Subcutaneous Administration to Mice

Series [2] is described as follows: Repeated administration on male rats for 2 weeks (toxicity, toxicokinetics). The class given is in vivo, SD male rats. As to the method: 77 SD male rats (SPF grade) were selected and randomly divided into 10 groups based on body weight. Group 1 was the vehicle control group, including 5 animals. […] Group 5 to Group 7 were the groups administrated with the test substance 1; and Group 8 to Group 10 were the groups administrated with the test substance 2, each group including 8 animals, wherein 5 animals for primary test, and 3 animals for toxicokinetics test, and the administration dose was 1, 3 and 10 mg/kg respectively. Each of the above groups was continuously administered twice a week for 2 weeks (administrating at Day 1, Day 5, Day 8, Day 12 and Day 15).
During the experiment, the cage condition monitoring, detailed clinical observations, determination of the food consumption, determination of body weight, measurement of the blood biochemical and hematology indicator, investigation of the gross anatomy, weighing of the organ, studying on toxicokinetic were performed on all the groups of the animals.
Original data during each time period was tabulated. The average values and standard deviations and/or group change were calculated for each assay endpoint based on the group and sex. For each endpoint, the administrated group will be compared with the control group in the following aspect. A logarithmic conversion was performed to the endpoint data as desired prior to the start of the specific analyses.

The conditions of series [3]: in vivo.

As to `CC[C@H](C)[C@H](NC(=O)[C@H](CC(C)C)NC(=O)[C@H](Cc1c[nH]c2ccccc12)NC(=O)[C@H](CCC(N)=O)NC(=O)[C@@H](NC(=O)[C@H](Cc1ccccc1)NC(=O)[C@H](C)NC(=O)[C@H](CCCCNC(=O)COCCOCCNC(=O)COCCOCCNC(=O)CC[C@H](NC(=O)CCCCCCCCCCCCCCCCCCC(=O)O)C(=O)O)NC(=O)[C@H](CCC(N)=O)NC(=O)[C@H](C)NC(=O)[C@@H](NC(=O)[C@H](CCCCN)NC(=O)[C@H](CC(=O)O)NC(=O)[C@H](CC(C)C)NC(=O)C(C)(C)NC(=O)[C@@H](NC(=O)[C@H](CO)NC(=O)[C@H](Cc1ccc(O)cc1)NC(=O)[C@H](CC(=O)O)NC(=O)[C@H](CO)NC(=O)[C@@H](NC(=O)[C@H](Cc1ccccc1)NC(=O)[C@@H](NC(=O)CNC(=O)[C@H](CCC(=O)O)NC(=O)C(C)(C)NC(=O)[C@@H](N)Cc1ccc(O)cc1)[C@@H](C)O)[C@@H](C)O)[C@@H](C)CC)[C@@H](C)CC)C(C)C)C(=O)N[C@@H](C)C(=O)NCC(=O)NCC(=O)N1CCC[C@H]1C(=O)N[C@@H](CO)C(=O)N[C@@H](CO)C(=O)NCC(=O)N[C@@H](C)C(=O)N1CCC[C@H]1C(=O)N1CCC[C@H]1C(=O)N1CCC[C@H]1C(=O)N[C@@H](CO)C(N)=O` [Tirzepatide, reference compound], the MRT in series [1] (iv, MRT(0-t)) was found to be 11.4 h; in series [1] (iv, MRT(0-∞)), 12 h; in series [1] (sc, MRT(0-t)), 14.5 h; in series [1] (sc, MRT(0-∞)), 15.3 h. In series [2] (MTD for 2 weeks, rats), the MTD is 2077 nmol/kg (MTD for 2 weeks). Moreover, the “dose at which decrease of the body weight was observed after the first administration” value in series [2] (SD male rats) is on record as at least 3 mg/kg. For the same compound, the “Gross Anatomy” value in series [2] (SD male rats, 1, 3, 10 mg/kg twice a week for 2 weeks) is given as “no abnormalities were found”. The “accumulation (toxicokinetic)” value in series [2] (SD male rats, administered twice a week for 2 weeks) is reported as “no substantial accumulation”. Further, the MTD at 336 h in series [2] (Sprague-Dawley, rat, in vivo, SD male rats, administered twice a week for 2 weeks) is at least 10 mg/kg. In addition, in series [2] (rat 2-week MTD versus efficacy dose), the “Safety Window (based on dosage)” value was 416. In series [3], the “heart rate recovery time” value is over 120 h.
